Test results as given in patent US11944090B2, “Compositions and methods for attracting fire ants” (The United States of America, as represented by The …, priority 2021, dated 2024).
Several values for one entry are separate records, joined by “and”; a condition that tells them apart may be missing. Identical values can stand only once. Entries after “also recorded” stand apart in the source; their conditions may differ.

Columns and labels:
fire ants [1] = test: Field multiple-choice feeding bioassay (soybean oil consumption); format: in vivo, Solenopsis invicta; conditions: for difference among treatments and control in oil consumption / feeding preference on soybean oil (one-way ANOVA): all tested concentrations of each compound in soybean oil, field multiple-choice; for concentration at which oil consumption was numerically the highest: multiple-choice bioassay of known attractants; for concentration at which the effect on oil consumption was statistically significant compared to the control oil: Tukey's HSD; for effect of different concentrations on oil consumption (one-way ANOVA): first multiple-choice bioassay: 10-oxo 9.09, 4.54, 2.27, 1.14 mg/g, 11-oxo 8.62, 4.31, 2.15, 1.08 mg/g
Experimental: Multiple-choice and a paired two-choice bioassays were used in this study. A schematic representation of the bioassay set-ups is depicted in FIG. 19. Soybean oil was used as a food source for all the bioassays (Great Value, purchased from Walmart in Greenville Mississippi). The feeding apparatus was a filtered 1-ml pipette tip with the part 0.5 cm below the filter removed. In multiple-choice bioassays, four to six concentrations of tested compounds were tested with untreated soybean oil as a control, and in two-choice bioassays, the compound at certain concentration was tested against the control oil or oil treated with known fire ant attractant. Eighty microliter soybean oil was loaded onto each filter. After being weighed, the apparatuses with oil were placed in the field for about 2 hours. The apparatuses were then collected and frozen under −40° C. to kill all ants. The apparatuses were weighed again after all ants were removed from the apparatuses. The difference in the weight of apparatuses before and after the feeding bioassays was the oil consumption. There were six to 10 replicates for each bioassay. Feeding sites were at least 10 m away from each other. The difference in oil consumption among/between treatment and control apparatuses was used to evaluate the effect of tested compound on the feeding of fire ants. For multiple-choice bioassays, a one-way ANOVA was performed to compare the effect of different concentrations of tested compound on the percentage of oil consumption. Tukey's HSD test was used for multiple comparisons. A paired t test was used in statistical analysis for the two-choice bioassays. For each fatty acid, eight concentrations were tested in two separate multiple-choice bioassays. For 10-oxo-dodecnoic acid, the first set used in the multiple-choice bioassay included concentrations of 0.00 mg/g (control), 9.09 mg/g, 4.54 mg/g, 2.27 mg/g, and 1.14 mg/g, and the second set included 0.00 mg/g, […], 0.28 mg/g, 0.142 mg/g, and 0.07 mg/g. There were seven replicates for each set of bioassay. For 11-oxo-dodecnoic acid, the first set used in the multiple-choice bioassay included concentrations of 0.00 mg/g, 8.62 mg/g, 4.31 mg/g, 2.15 mg/g, and 1.08 mg/g, and the second set included 0.00 mg/g, 0.54 mg/g, 0.27 mg/g, 0.14 mg/g, and 0.07 mg/g. There were six replicates for the first set of bioassay and seven replicates for the second set of bioassay. Five oxo fatty acid analogs were tested in the filed using two-choice or multiple-choice bioassays. Tested were 8-oxo-decanoic acid, 9-oxo-2-decenoic acid, 9-oxo-decanoic acid, 11-oxo-tridecanoic acid, and 12-oxo-tetradecanoic acid. Eight oxo-decanoic acid was tested in a multiple-choice bioassay at 6 different concentrations including 0.00 mg/g, 0.81 mg/g, 0.41 mg/g, 0.20 mg/g, 0.10 mg/g, and 0.05 mg/g. There were 10 replicates for the bioassay. For 9-oxo-2-decenoic acid, a two-choice bioassay was conducted with each of the following six concentrations: 0.39 mg/g, 0.197 mg/g, 0.098 mg/g, 0.049 mg/g, 0.025 mg/g, and 0.012 mg/g. There were 5 to 7 replicates for each two-choice bioassay. For 9-oxo-decanoic acid, a multiple-choice bioassay was conducted at six concentrations including 0.00 mg/g, 0.124 mg/g, 0.062 mg/g, 0.031 mg/g, 0.016 mg/g, and 0.007 mg/g. There were 11 replicates. For 11-oxo-tridecanoic acid, a multiple-choice bioassay was conducted at five concentrations including 0.00 mg/g, 7.71 mg/g, 3.86 mg/g, 1.93 mg/g, and 0.96 mg/g. There were 6 replicates. For 12-oxo-tetradecanoic acid, a multiple-choice bioassay was conducted at six concentrations including 0.00 mg/g, 1.15 mg/g, 0.58 mg/g, 0.29 mg/g, 0.14 mg/g, and 0.07 mg/g. There were 7 replicates.

fire ants [2] = test: Field paired two-choice feeding bioassay (soybean oil consumption); format: in vivo, Solenopsis invicta
Experimental: Multiple-choice and a paired two-choice bioassays were used in this study. A schematic representation of the bioassay set-ups is depicted in FIG. 19. Soybean oil was used as a food source for all the bioassays (Great Value, purchased from Walmart in Greenville Mississippi). The feeding apparatus was a filtered 1-ml pipette tip with the part 0.5 cm below the filter removed. In multiple-choice bioassays, four to six concentrations of tested compounds were tested with untreated soybean oil as a control, and in two-choice bioassays, the compound at certain concentration was tested against the control oil or oil treated with known fire ant attractant. Eighty microliter soybean oil was loaded onto each filter. After being weighed, the apparatuses with oil were placed in the field for about 2 hours. The apparatuses were then collected and frozen under −40° C. to kill all ants. The apparatuses were weighed again after all ants were removed from the apparatuses. The difference in the weight of apparatuses before and after the feeding bioassays was the oil consumption. There were six to 10 replicates for each bioassay. Feeding sites were at least 10 m away from each other. The difference in oil consumption among/between treatment and control apparatuses was used to evaluate the effect of tested compound on the feeding of fire ants. For multiple-choice bioassays, a one-way ANOVA was performed to compare the effect of different concentrations of tested compound on the percentage of oil consumption. Tukey's HSD test was used for multiple comparisons. A paired t test was used in statistical analysis for the two-choice bioassays.
Five oxo fatty acid analogs were tested in the filed using two-choice or multiple-choice bioassays. Tested were 8-oxo-decanoic acid, 9-oxo-2-decenoic acid, 9-oxo-decanoic acid, 11-oxo-tridecanoic acid, and 12-oxo-tetradecanoic acid. Eight oxo-decanoic acid was tested in a multiple-choice bioassay at 6 different concentrations including 0.00 mg/g, 0.81 mg/g, 0.41 mg/g, 0.20 mg/g, 0.10 mg/g, and 0.05 mg/g. There were 10 replicates for the bioassay. For 9-oxo-2-decenoic acid, a two-choice bioassay was conducted with each of the following six concentrations: 0.39 mg/g, 0.197 mg/g, 0.098 mg/g, 0.049 mg/g, 0.025 mg/g, and 0.012 mg/g. There were 5 to 7 replicates for each two-choice bioassay. For 9-oxo-decanoic acid, a multiple-choice bioassay was conducted at six concentrations including 0.00 mg/g, 0.124 mg/g, 0.062 mg/g, 0.031 mg/g, 0.016 mg/g, and 0.007 mg/g. There were 11 replicates. For 11-oxo-tridecanoic acid, a multiple-choice bioassay was conducted at five concentrations including 0.00 mg/g, 7.71 mg/g, 3.86 mg/g, 1.93 mg/g, and 0.96 mg/g. There were 6 replicates. For 12-oxo-tetradecanoic acid, a multiple-choice bioassay was conducted at six concentrations including 0.00 mg/g, 1.15 mg/g, 0.58 mg/g, 0.29 mg/g, 0.14 mg/g, and 0.07 mg/g. There were 7 replicates.
The following paired two-choice bioassays were conducted: 1) 10-oxo-dodecanoic acid at 1.14 mg/g vs trans, trans-2,4-heptadienal at 0.19 mg/g; 2) 11-oxo-dodecanoic acid at 1.08 mg/g vs trans, trans-2,4-heptadienal at 0.19 mg/g; 3) 10-oxo-dodecanoic acid at 1.14 mg/g vs 2-ethyl-3,6 (5)-dimethylpyrazine at 0.004 mg/g; 4) 11-oxo-dodecanoic acid at 1.08 mg/g vs 2-ethyl-3,6 (5)-dimethylpyrazine at 0.004 mg/g. The results are shown in Table 2 below, and FIG. 29A to FIG. 29D.

fire ants [3] = conditions: Vander Meer et al., 2009; cited from earlier work
worker fire ants = test: Attraction bioassay (paired two choice, treated tube vs acetone control); format: in vivo, S. invicta; conditions: individual oxo acids, 20 μl acetone solution: 2.029 mg/ml 10-oxo-dodecanoic acid, 1.96 mg/ml 11-oxo-dodecanoic acid; host tray; 1 hour; paired t test
fire ants [4] = test: Feeding bioassay (laboratory paired two-choice, treated vs untreated soybean oil); format: in vivo, S. invicta; conditions: soybean oil with 1.90 μg/mg 10-oxo-dodecanoic acid, 7.273 μg/mg 11-oxo-dodecanoic acid, or 0.36 μg/mg mixture (38.12%/61.88%) vs untreated oil; 24 hours; paired t test
[5] = Bioassay 3: 10-oxo-dodecanoic acid 1.14 mg/g vs 2-ethyl-3,6 (5)-dimethylpyrazine 0.004 mg/g
[6] = Bioassay 3: 10-oxo-dodecanoic acid at 1.14 mg/g vs 2-ethyl-3,6 (5)-dimethylpyrazine at 0.004 mg/g
[7] = Bioassay 4: 11-oxo-dodecanoic acid 1.08 mg/g vs 2-ethyl-3,6 (5)-dimethylpyrazine 0.004 mg/g
[8] = Bioassay 4: 11-oxo-dodecanoic acid at 1.08 mg/g vs 2-ethyl-3,6 (5)-dimethylpyrazine at 0.004 mg/g
[9] = first multiple-choice bioassay (about 1 to 9 mg/g)
[10] = control 0.00 mg/g, field, about 2 hours
[11] = Bioassay 2: 11-oxo-dodecanoic acid 1.08 mg/g vs trans, trans-2,4-heptadienal 0.19 mg/g
[12] = Bioassay 2: 11-oxo-dodecanoic acid at 1.08 mg/g vs trans, trans-2,4-heptadienal at 0.19 mg/g
[13] = Bioassay 1: 10-oxo-dodecanoic acid 1.14 mg/g vs trans, trans-2,4-heptadienal 0.19 mg/g
[14] = Bioassay 1: 10-oxo-dodecanoic acid at 1.14 mg/g vs trans, trans-2,4-heptadienal at 0.19 mg/g

CCC(=O)CCCCCCC(=O)O [8-oxo-decanoic acid]
difference among treatments and control in oil consumption / feeding preference on soybean oil (one-way ANOVA) (fire ants [1]): no significant difference

CCC(=O)CCCCCCCCCC(=O)O [11-oxo-tridecanoic acid]
difference among treatments and control in oil consumption / feeding preference on soybean oil (one-way ANOVA) (fire ants [1]): no significant difference

2-ethyl-3,6 (5)-dimethylpyrazine [reference compound]
difference among treatments and control in oil consumption / feeding preference on soybean oil (one-way ANOVA) (fire ants [1]): significant difference
concentration at which oil consumption was numerically the highest (fire ants [1]): 0.004 mg/g
concentration that significantly improved the feeding preference of fire ant on soybean oil (fire ants [1]; multiple-choice, 0.064 to 0.002 mg/g tested): 0.002 mg/g and 0.004 mg/g
difference in the effect on oil consumption between the two compounds (fire ants [2]; [5]): significantly higher oil consumption
Mean oil consumption (fire ants [2]; [6]): 19.53 mg
difference in the effect on oil consumption between the two compounds (fire ants [2]; [7]): significantly higher oil consumption
Mean oil consumption (fire ants [2]; [8]): 21.75 mg
concentration mostly preferred by fire ants (fire ants [3]): 30 ng/µL

CC(=O)CCCCCCCCCC(=O)O [11-oxo-dodecanoic acid]
difference in the number of ants between treatment vials and control vials (worker fire ants): significant difference
difference in oil consumption between treatment and control (fire ants [4]): significant difference
most active / most effective concentration (fire ants [1]; dosage bioassays in soybean oil): around 1.08 mg/g
concentration at which the effect on oil consumption was statistically significant compared to the control oil (fire ants [1]; [9]): 1.08 mg/g
effect of different concentrations on oil consumption (one-way ANOVA) (fire ants [1]; [10]): significant effect
effect on oil consumption (one-way ANOVA) (fire ants [1]; second multiple-choice bioassay: 10-oxo 0.51, 0.28, 0.142, 0.07 mg/g, 11-oxo 0.54, 0.27, 0.14, 0.07 mg/g, control 0.00 mg/g, field, about 2 hours): no significant effect
difference in the effect on oil consumption between the two compounds (fire ants [2]; [11]): no significant difference
Mean oil consumption (fire ants [2]; [12]): 21.23 mg
difference in the effect on oil consumption between the two compounds (fire ants [2]; [7]): significant difference
Mean oil consumption (fire ants [2]; [8]): 15.8 mg

CCC(=O)CCCCCCCCCCC(=O)O [12-oxo-tetradecanoic acid]
difference among treatments and control in oil consumption / feeding preference on soybean oil (one-way ANOVA) (fire ants [1]): no significant difference

CC/C=C/C=C/C=O [trans, trans-2,4-heptadienal, reference compound]
difference among treatments and control in oil consumption / feeding preference on soybean oil (one-way ANOVA) (fire ants [1]): did not significantly improve; also recorded: not significantly different
concentration at which oil consumption was numerically the highest (fire ants [1]): 0.19 mg/g
difference in the effect on oil consumption between the two compounds (fire ants [2]; [13]): no significant difference
Mean oil consumption (fire ants [2]; [14]): 22.83 mg
difference in the effect on oil consumption between the two compounds (fire ants [2]; [11]): no significant difference
Mean oil consumption (fire ants [2]; [12]): 19.95 mg

CC(=O)CCCCCCCC(=O)O [9-oxo-decanoic acid]
difference among treatments and control in oil consumption / feeding preference on soybean oil (one-way ANOVA) (fire ants [1]): no significant difference

CC(=O)CCCCCC=CC(=O)O [9-oxo-2-decenoic acid]
feeding preference of fire ant on soybean oil (fire ants [2]; 0.049 mg/g in soybean oil vs control): significantly improved

CCC(=O)CCCCCCCCC(=O)O [10-oxo-dodecanoic acid]
difference in the number of ants between treatment vials and control vials (worker fire ants): significant
difference in oil consumption between treatment and control (fire ants [4]): significant
concentration at which the effect on oil consumption was statistically significant compared to the control oil (fire ants [1]; [9]): 1.14 mg/g
effect of different concentrations on oil consumption (one-way ANOVA) (fire ants [1]; [10]): significant effect
concentration at which the effect on oil consumption was statistically significant compared to the control oil (fire ants [1]; second multiple-choice bioassay (0.07 to about 0.5 mg/g)): 0.51 mg/g
difference in the effect on oil consumption between the two compounds (fire ants [2]; [13]): no significant difference
Mean oil consumption (fire ants [2]; [14]): 23.84 mg
difference in the effect on oil consumption between the two compounds (fire ants [2]; [5]): significant difference
Mean oil consumption (fire ants [2]; [6]): 12.69 mg
